According to PMC7022188 (Proceedings of the National Academy of Sciences of the …, 2020):
pKd: −log10 of the molar value.

Tests used:
[1] = biological target: T1, ctPrp2-ctSpp2_211–254 complex (ctPrp2_270–921 with ctSpp2G-patch) (Thermochaetoides thermophila, UniProt G0SEG4); test: ITC; assay type: binding
T1 sequence (G0SEG4 270-921): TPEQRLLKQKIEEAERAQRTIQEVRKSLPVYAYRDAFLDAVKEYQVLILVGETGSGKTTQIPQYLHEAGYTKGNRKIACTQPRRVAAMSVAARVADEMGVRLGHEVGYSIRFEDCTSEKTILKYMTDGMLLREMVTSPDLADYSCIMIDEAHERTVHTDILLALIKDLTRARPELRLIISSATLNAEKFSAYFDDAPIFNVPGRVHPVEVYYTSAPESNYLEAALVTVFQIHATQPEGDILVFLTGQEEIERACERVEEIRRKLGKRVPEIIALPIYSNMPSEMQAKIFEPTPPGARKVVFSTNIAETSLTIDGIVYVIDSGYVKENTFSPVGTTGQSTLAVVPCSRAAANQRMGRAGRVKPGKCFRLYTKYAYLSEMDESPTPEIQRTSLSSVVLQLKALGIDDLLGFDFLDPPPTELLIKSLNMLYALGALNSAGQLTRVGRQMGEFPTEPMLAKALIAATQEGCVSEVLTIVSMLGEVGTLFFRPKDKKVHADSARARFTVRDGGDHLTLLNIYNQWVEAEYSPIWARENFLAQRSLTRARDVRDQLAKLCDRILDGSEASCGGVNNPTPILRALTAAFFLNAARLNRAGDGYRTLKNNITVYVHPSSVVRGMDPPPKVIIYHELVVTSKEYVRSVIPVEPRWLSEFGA
T1 sequence (G0SFN3 211-254 partner): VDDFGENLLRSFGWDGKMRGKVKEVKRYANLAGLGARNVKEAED

[2] = biological target: ctPrp2 as used for ITC and for in-solution cross-linking (Chaetomium thermophilum); test: ITC

pKd [1]	pKd [2]	Molecule
~6.76	–	Nc1ncnc2c1ncn2[C@@H]1O[C@H](COP(=O)(O)OP(=O)(O)O)[C@@H](O)[C@H]1O [ADP]
–	6.14	ctSpp2_(211–254), G-patch domain of Spp2 from Chaetomium thermophilum (domain or fragment)
